Key:
HO-null cells = assay: Secondary filter for Myc specificity: cell growth inhibition, methylene blue staining; type: cell-based; settings: Rattus norvegicus, 72 h, read-out: ID50 HO-null
Method: (§1) FIG. 4 illustrates the myc specificity of tested compounds. Rat1a cells expressing c-myc, L-myc or N-myc or lacking any Myc (null) were treated for 72 h with a range of hit compound concentrations. The cells were then fixed and stained with methylene blue and the percentage of cells in the presence of compound compared to DMSO only control was calculated.
(§2) Validated hits were divided into classes when two or more compounds shared significant structural similarity. The ID50 for N-myc transactivation (the inhibitory dose resulting in 50% decrease in luciferase activity) for each hit was calculated from the dose-response N-myc responsive reporter assay. Compounds within each class were ranked by their ID50 for N-myc transactivation and the best compounds within each class were chosen for further studies. In addition, the best of the structurally unique compounds were also analyzed. A total of 46 hits were passed through a secondary filter designed to determine the specificity of the hits for Myc proteins. For this filter, we used a panel of cell lines derived from Rat1a cells (kindly provided by Michael Cole, Dartmouth University): HO-null-c-Myc deficient cells due to homologous recombination that express neither N-myc nor L-myc HO-c-Myc, HO-L-myc and HO-N-myc derived by retroviral transduction of the corresponding Myc genes into HO-null cells. Since each cell line expresses only a single Myc or no Myc family members, we could identify compounds that act through Myc family members as well as which Myc family members. […] The 18 Myc-specific compounds identified during the screening and filtering process are presented in Table 1 and represent distinct classes of molecules, including pyrazoles (e.g., N147A7, N47E10, N147G5), tetrazoles (e.g., N77A7) and 3-bromophenol (e.g., N4G6).

HO-N-myc cells = assay: as above; type: cell-based, rat; settings: for Myc Index N: ID50 in HO-null cells divided by ID50 in HO—N-myc cells; for IC50: Rattus norvegicus, cell growth inhibition, 72 h, methylene blue, read-out: ID50 HO—N-myc
Method: as §1, §2

HO-c-Myc cells = assay: as above; type: cell-based, rat; settings: for IC50: Rattus norvegicus, cell growth inhibition, 72 h, methylene blue, read-out: ID50 HO-c-myc; for Myc Index C: ID50 in HO-null cells divided by ID50 in HO-c-myc cells
Method: as §1, §2

SK-Mel-103 = assay: Suppression of proliferation / senescence induction in melanoma line; type: cell-based; settings: Homo sapiens
From the text: (§3) 260 analogs of N77A7 were selected from several commercially available libraries of small molecules based on the structural similarities with N77A7. The compounds were screened for the ability to permanently suppress proliferation and induce senescence in cells from melanoma lines SK-Mel-19 and SK-Mel-103. Based on the above-described screening procedure, seven small molecules were identified as having IC50 values lower than that of N77A7.

SK-Mel-19 = assay: as above; type: cell-based; settings: Homo sapiens, SK-MEL19
From the text: as §3

in vitro = assay: in vitro
Method: Additionally, several of the N77A7 analogs were subjected to the test for the metabolic stability in human and mouse liver microsomes. Briefly, 1 μM of test compound was incubated with microsomal protein (human liver microsomes: 0.5 mg/mL; mouse liver microsomes 0.5 mg/mL) and buffer (100 mM potassium phosphate, pH 7.4, 5 mM magnesium chloride). The positive control was 5 μM testosterone. The reaction was equilibrated at 37 C in a shaking water bath for 3 to 5 minutes. After equilibration, an aliquot was removed and combined with 50/50 acetonitrile/water containing 0.1% formic acid and internal standard to terminate the reaction. 1 mM NADPH was immediately added and the tube was returned to the water bath. Five sample time points were taken (0, 10, 20, 30, and 60 minutes). Aliquots were removed and combined with 50/50 acetonitrile/water containing 0.1% formic acid and internal standard to terminate the reaction. The samples were mixed for 10 minutes and centrifuged. The supernatant from each sample was diluted (if necessary) and then transferred to vials for analysis by LC-MS/MS for the test compound and internal standard without calibration standards. The percent remaining at each time point was determined by the test compound's peak area response ratio versus the 0 minute sample.

[1] = human, microsomes, 0 h, 1 μM, pH 7.4
[2] = human, microsomes, 1 μM, pH 7.4
[3] = human, microsomes, 0.5 h, 1 μM, pH 7.4
[4] = human, microsomes, 1 h, 1 μM, pH 7.4
[5] = mouse, microsomes, 0 h, 1 μM, pH 7.4
[6] = mouse, microsomes, 1 μM, pH 7.4
[7] = mouse, microsomes, 0.5 h, 1 μM, pH 7.4
[8] = mouse, microsomes, 1 h, 1 μM, pH 7.4

SMILES	IC50 (HO-null cells)	Myc Index N (HO-N-myc cells)	IC50 (HO-N-myc cells)	IC50 (HO-c-Myc cells)	Myc Index C (HO-c-Myc cells)	also measured
c1ccc(-c2nnc(-c3ccccn3)nc2-c2ccccc2)cc1 [Compound N49C4]	159 µM	8.1	~728 µM	19.6 µM	–	–
COc1ccc(OCC(=O)N/N=C\c2cc(O)c(O)c(Br)c2)c(Br)c1 [Compound N4G6]	> 100 µM	>10	10.2 µM	32.6 µM	>3	–
Cc1ccc(/C=N/NC(=O)c2cc(-c3ccccc3)n[nH]2)c(O)c1 [Compound 1]	–	–	–	–	–	IC50 (SK-Mel-103): 2500 nM; IC50 (SK-Mel-19): 4000 nM
CCN(CC)c1ccc(/C=N/NC(=O)Cn2c3ccccc3c(=O)c3ccccc32)c(O)c1 [Compound 2]	–	–	–	–	–	IC50 (SK-Mel-103): 400 nM; IC50 (SK-Mel-19): 400 nM; Percent Remaining 0 min (in vitro; [1]): 100%; Half-life (in vitro; [2]): >60 min; Percent Remaining 10 min (in vitro; [2]): 119%; Percent Remaining 20 min (in vitro; [2]): 91%; Percent Remaining 30 min (in vitro; [3]): 83%; Percent Remaining 60 min (in vitro; [4]): 74%; half-life at 1 µM (in vitro; human, microsomes, pH 7.4): > 60 min; microsomal CLint at 1 μM (in vitro; human, microsomes, pH 7.4): < 20 µL/min/mg; Percent Remaining 0 min (in vitro; [5]): 100%; Percent Remaining 10 min (in vitro; [6]): 45%; Percent Remaining 20 min (in vitro; [6]): 32%; Percent Remaining 30 min (in vitro; [7]): 26%; Percent Remaining 60 min (in vitro; [8]): 21%; half-life at 1 µM (in vitro; mouse, microsomes, pH 7.4): 13.5 min; microsomal CLint at 1 μM (in vitro; mouse, microsomes, pH 7.4): 100 µL/min/mg
O=C(Oc1c(C(=O)Nc2ccc(Cl)c([N+](=O)[O-])c2)ccc2ccccc12)c1ccccc1 [Compound N6A8]	21.1 µM	2.2	9.71 µM	8.86 µM	2.4	–
O=c1[nH]c2ccc(/N=C/c3cn(Cc4ccc(Cl)cc4Cl)c4ccccc34)cc2[nH]1 [Compound N18C5]	> 100 µM	>6	16 µM	> 100 µM	–	–
O=C(N/N=C/c1c(O)ccc2ccccc12)c1cc(C23CC4CC(CC(C4)C2)C3)n[nH]1 [Compound N147A7]	5.12 µM	2.7	1.9 µM	3.94 µM	1.3	–
O=C(NC(NC(=S)Nc1ccc(I)cc1)C(Cl)(Cl)Cl)c1cccc([N+](=O)[O-])c1 (stereo not drawn) [Compound N121F3]	23.5 µM	2.4	9.7 µM	11.3 µM	2.1	–
C[C@]12CC[C@H]3[C@@H](CCC4=CC(=O)CC[C@@]43C)[C@@H]1CC[C@@H]2O [Testosterone, testosterone, reference compound]	–	–	–	–	–	Percent Remaining 10 min (in vitro; human liver microsomes 0.5 mg/mL, 1 μM test compound (testosterone 5 μM)): 78%; Percent Remaining 30 min (in vitro; human liver microsomes 0.5 mg/mL, 1 μM test compound (testosterone 5 μM), 30 min): 40%; Percent Remaining 60 min (in vitro; human liver microsomes 0.5 mg/mL, 1 μM test compound (testosterone 5 μM), 60 min): 19%; Percent Remaining 0 min (in vitro; human liver microsomes 0.5 mg/mL, 1 μM test compound (testosterone positive control 5 μM), 0 min): 100%; half-life at 1 µM (in vitro; human, microsomes, pH 7.4): 23.9 min; Percent Remaining 10 min (in vitro; mouse liver microsomes 0.5 mg/mL, 1 μM test compound (testosterone 5 μM)): 19%; Percent Remaining 30 min (in vitro; mouse liver microsomes 0.5 mg/mL, 1 μM test compound (testosterone 5 μM), 30 min): <1.0%; Percent Remaining 60 min (in vitro; mouse liver microsomes 0.5 mg/mL, 1 μM test compound (testosterone 5 μM), 60 min): <1.0%; Percent Remaining 0 min (in vitro; mouse liver microsomes 0.5 mg/mL, 1 μM test compound (testosterone positive control 5 μM), 0 min): 100%; half-life at 1 µM (in vitro; mouse, microsomes, pH 7.4): 4.2 min
Nc1nonc1-n1nnc(C(=O)N/N=C/c2ccccc2O)c1CN1CCc2ccccc2C1 [Compound 5]	–	–	–	–	–	IC50 (SK-Mel-103): 350 nM; IC50 (SK-Mel-19): 600 nM
CC(C)(C)c1cc(C(=O)N/N=C/c2ccc(O)cc2O)n(-c2ccccc2)n1 [Compound N47E10]	7.21 µM	5	1.44 µM	2.54 µM	2.8	–
O=C(COc1ccc2ccccc2c1)N/N=C\c1cc(O)c(O)c(Br)c1 [Compound N4D2]	> 100 µM	>1.1	88 µM	33.8 µM	>3	–
O=[N+]([O-])c1cccc(Nc2ncnc3ccc(Br)cc23)c1 [Compound N117E2]	> 50 µM	>6	8.8 µM	7.49 µM	>7	–
CC(=O)NC(c1ccc2c(c1)OCO2)c1ccc2cccnc2c1O (stereo not drawn) [Compound N103A8]	7.57 µM	4.5	1.69 µM	1.62 µM	4.7	–
C=CCc1cccc(/C=N/NC(=O)c2cc(C(C)(C)C)n[nH]2)c1O [Compound N147G5]	> 25 µM	>5	5 µM	4.2 µM	>6	–
CCOc1cccc(/C=N/NC(=O)CSc2nc3ccccc3[nH]2)c1O [Compound N144G3]	83.2 µM	4.7	17.8 µM	25.8 µM	3.22	–
CCN(CC)c1ccc(/C=N/NC(=O)c2cc(Br)ccc2O)c(O)c1 [Compound N6008]	> 25 µM	>11	2.34 µM	2.32 µM	>11	–
CN1C(=O)/C(=C\c2cn(Cc3ccccc3)c3ccccc23)C(=O)NC1=S [Compound N423F7]	1980 µM	17	120 µM	89.1 µM	22	–
CCN(CC)c1ccc(/C=N\NC(=O)c2nnn(-c3nonc3N)c2CN2CCCCCC2)c(O)c1 [Compound 4]	–	–	–	–	–	IC50 (SK-Mel-103): 100 nM; IC50 (SK-Mel-19): 150 nM; Percent Remaining 0 min (in vitro; [1]): 100%; Percent Remaining 10 min (in vitro; [2]): 56%; Percent Remaining 20 min (in vitro; [2]): 37%; Percent Remaining 30 min (in vitro; [3]): 28%; Percent Remaining 60 min (in vitro; [4]): 20%; half-life at 1 µM (in vitro; human, microsomes, pH 7.4): 16 min; microsomal CLint at 1 μM (in vitro; human, microsomes, pH 7.4): 87 µL/min/mg; Percent Remaining 0 min (in vitro; [5]): 100%; Percent Remaining 10 min (in vitro; [6]): 3.1%; Percent Remaining 20 min (in vitro; [6]): 1.8%; Percent Remaining 30 min (in vitro; [7]): 1.3%; Percent Remaining 60 min (in vitro; [8]): <1.0%; half-life at 1 µM (in vitro; mouse, microsomes, pH 7.4): 2 min; microsomal CLint at 1 μM (in vitro; mouse, microsomes, pH 7.4): 690 µL/min/mg
CCN(CC)Cc1c(C(=O)N/N=C/c2ccc(N(CC)CC)cc2O)nnn1-c1nonc1N [Compound 6]	–	–	–	–	–	IC50 (SK-Mel-103): 250 nM; IC50 (SK-Mel-19): 350 nM; Percent Remaining 0 min (in vitro; [1]): 100%; Percent Remaining 10 min (in vitro; [2]): 49%; Percent Remaining 20 min (in vitro; [2]): 31%; Percent Remaining 30 min (in vitro; [3]): 18%; Percent Remaining 60 min (in vitro; [4]): 6.9%; half-life at 1 µM (in vitro; human, microsomes, pH 7.4): 11.5 min; microsomal CLint at 1 μM (in vitro; human, microsomes, pH 7.4): 120 µL/min/mg; Percent Remaining 0 min (in vitro; [5]): 100%; Percent Remaining 10 min (in vitro; [6]): 20%; Percent Remaining 20 min (in vitro; [6]): 8.9%; Percent Remaining 30 min (in vitro; [7]): 4.3%; Percent Remaining 60 min (in vitro; [8]): 1.2%; half-life at 1 µM (in vitro; mouse, microsomes, pH 7.4): 4.6 min; microsomal CLint at 1 μM (in vitro; mouse, microsomes, pH 7.4): 300 µL/min/mg
CC(C)Nc1ncnc2ccc(Br)cc12 [Compound N117G10]	28.2 µM	6	4.58 µM	6.27 µM	4.5	–
O=C(N/N=C\c1cc(Cc2ccccc2Cl)ccc1O)c1cncc(Br)c1 [Compound N171H10]	> 25 µM	>6	4 µM	2.6 µM	>10	–

Source: patent publication US9387213B2, “Small molecules inhibiting oncoprotein Myc” (Health Research, Inc., priority 2012, dated 2016)
